Test results: article PMC10797628
Numbering of substitutions follows the chain as printed. Where two headings read alike, the source gives them in different places.

Legend:
[1] = biological target: T1, human 5-HT1A receptor (Homo sapiens, UniProt P08908); assay: Radioligand binding (saturation and competition), WT 5-HT1A
T1 construct: host or cells: HEK293T
T1 sequence (P08908 1-422): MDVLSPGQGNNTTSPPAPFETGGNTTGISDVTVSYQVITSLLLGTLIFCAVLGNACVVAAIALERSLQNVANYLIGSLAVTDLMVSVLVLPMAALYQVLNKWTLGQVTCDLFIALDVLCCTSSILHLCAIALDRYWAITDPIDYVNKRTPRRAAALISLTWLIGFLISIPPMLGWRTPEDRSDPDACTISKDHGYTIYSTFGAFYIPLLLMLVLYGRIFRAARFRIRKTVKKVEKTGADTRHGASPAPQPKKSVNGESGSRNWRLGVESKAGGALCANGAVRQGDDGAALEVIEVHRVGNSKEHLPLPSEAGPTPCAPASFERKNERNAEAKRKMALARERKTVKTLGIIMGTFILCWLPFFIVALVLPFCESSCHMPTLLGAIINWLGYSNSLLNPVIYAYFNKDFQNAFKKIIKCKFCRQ

[2] = biological target: T7.39N 5-HT1B receptor (Homo sapiens, UniProt P28222, T355N); assay: cAMP accumulation in HEK293T cells, T7.39N 5-HT1B; format: cell-based; set-up: host or cells: HEK293T; conditions: point-mutated receptor, 3 independent experiments, read-out: pEC50 5-HT1B Receptor N7.39T (converted)
Procedure: (§1) Briefly, cells transfected with the desired receptor construct and compounds were incubated in the dark for 90 min at 37 °C. After incubation, cAMP detection reagents were added, and TR-FRET was used to quantify the cAMP produced.
(§2) The functional activity of compounds was determined by stimulating cells expressing the desired receptor with FSK and test compound in parallel with 12 known concentrations of cAMP. The known concentrations of cAMP were used to create a standard curve for each experiment that was used to interpolate the unknown values of cAMP in wells with test compounds. […] The EC50 and EMAX values were determined using the “dose response – log[agonist] vs response (three parameter)” nonlinear regression model in Prism and transformed to pEC50 values, reported as mean ± SD.
(§3) Summary of functional assay conditions at various 5-HT1 receptor point mutation constructs.

[3] = biological target: T2, V3.33I 5-HT1A receptor (Homo sapiens, UniProt P08908, V117I); assay: Radioligand binding, V3.33I 5-HT1A
T2 sequence (P08908 1-422 V117I): T1 sequence (P08908 1-422) with V117I
Procedure: (§4) 48 hours after transfection with the desired receptor construct, cells were isolated for saturation and competition binding assays as previously described.[47],[48],[57] Saturation and competition radioligand binding assays were conducted in an assay buffer consisting of 50 mM Tris HCl, 10 mM MgCl2, and 0.1 mM EDTA in filtered deionized water. […] Briefly, 5–10 μg of the receptor protein, as determined by a Thermo Fisher Pierce BCA protein assay kit, was incubated with 8 concentrations of radioligand in triplicate to determine total binding. […] Nonspecific binding was determined as above for saturation assays.
(§5) For radioligand binding data, nonspecific binding was subtracted from the total binding to get specific binding. Saturation binding data was fit to the “binding saturation-specific binding with hill slope” model. Competition binding data were fit to the “binding competition-one-site fit Ki” non-linear regression model and transformed to pKi values, reported as mean ± SD.
(§6) is 50 mM Tris HCl, 10 mM MgCl2 and 0.1 mM EDTA in filtered deionized water.

[4] = biological target: T3, Y5.38F 5-HT1A receptor (Homo sapiens, UniProt P08908, Y195F); assay: Radioligand binding, Y5.38F 5-HT1A
T3 sequence (P08908 1-422 Y195F): T1 sequence (P08908 1-422) with Y195F
Procedure: as §4, §5, §6

[5] = biological target: T4, S5.42A 5-HT1A receptor (Homo sapiens, UniProt P08908, S199A); assay: Radioligand binding, S5.42A 5-HT1A
T4 sequence (P08908 1-422 S199A): T1 sequence (P08908 1-422) with S199A
Procedure: as §4, §5, §6

[6] = biological target: T3, Y5.38F 5-HT1A receptor; assay: cAMP accumulation in HEK293T cells, Y5.38F 5-HT1A; format: cell-based; set-up: mutated in house (Quikchange II) HTR01A0000; host or cells: HEK293T; conditions: point-mutated receptor, 3 independent experiments, read-out: pEC50 5-HT1A Receptor Y5.38F (converted)
Procedure: as §1, §2, §3

[7] = biological target: T4, S5.42A 5-HT1A receptor; assay: cAMP accumulation in HEK293T cells, S5.42A 5-HT1A; format: cell-based; set-up: mutated in house (Quikchange II) HTR01A0000; host or cells: HEK293T; conditions: point-mutated receptor, 3 independent experiments, read-out: pEC50 5-HT1A Receptor S5.42A (converted)
Procedure: as §1, §2, §3

Sequence of T7.39N 5-HT1B receptor (P28222 whole entry T355N): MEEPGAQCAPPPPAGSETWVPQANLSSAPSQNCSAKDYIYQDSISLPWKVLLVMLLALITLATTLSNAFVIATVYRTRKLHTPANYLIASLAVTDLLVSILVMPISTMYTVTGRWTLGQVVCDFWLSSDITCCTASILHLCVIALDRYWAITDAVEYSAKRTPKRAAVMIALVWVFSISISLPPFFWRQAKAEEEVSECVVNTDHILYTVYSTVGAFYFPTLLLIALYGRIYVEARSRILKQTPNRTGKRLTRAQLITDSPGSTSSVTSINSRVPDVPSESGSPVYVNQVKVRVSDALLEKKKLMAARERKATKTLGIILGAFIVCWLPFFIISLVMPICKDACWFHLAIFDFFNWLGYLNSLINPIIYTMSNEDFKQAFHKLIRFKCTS

Row | Ki ([1]; read-out: Affinity (pKi ± SD) 5-HT1A (converted)) [nM] | Compound | Ki ([1]; Affinity (pKi ± SD) 5-HT1A, WT receptor, [^3H]5-CT competition, mean ± SD) [nM] | EC50 [2] [nM] | Ki [3] [nM] | Ki [4] [nM] | Ki [5] [nM] | EC50 [6] [nM] | EC50 [7] [nM]
1 |  | CN(C)[C@H]1CCc2c(cccc2-c2cccc3ccccc23)C1 [(S)-NAP] | 61.7 | 37.2 | 63.1 | 60.3 | 63.1 | 380 | 363
2 | 1.26 | Fc1ccccc1-c1cccc2c1CC[C@H](N1CCCC1)C2 [(S)-PFPT] |  | 19.5 | 8.13 | 1.74 | 1.48 | 2.09 | 1.62
